Laboratory results: ChEMBL document CHEMBL3875211, “Design and synthesis of new coumarin hybrids and insight into their mode of antiproliferative action” (Bioorg Med Chem, 2017)
Calls of active or inactive are those of the source. The calls are words filed in the database; no cut-off is given here.

How the values were obtained:
[1] = tested on: K562; experiment: Induction of apoptosis in human K562 cells assessed as increase in Bax mRNA expression at antiproliferative IC50 by RT-PCR method; format: functional, cell-based
[2] = Cytotoxicity against human WI38 cells assessed as reduction in cell viability after 48 hrs by MTT assay; format: toxicity, cell-based, WI-38
[3] = Antiproliferative activity against human K562 cells after 48 hrs by MTT assay; format: functional, cell-based; conditions: K562, 48 h
[4] = tested on: K562; experiment: Induction of apoptosis in human K562 cells assessed as increase in caspase-9 protein expression at 0.93 uM after 24 hrs by ELISA; format: functional, cell-based
[5] = tested on: K562; experiment: Induction of apoptosis in human K562 cells assessed as decrease in Bcl2 mRNA expression at antiproliferative IC50 by RT-PCR method; format: functional, cell-based
[6] = Antiproliferative activity against human HepG2 cells after 48 hrs by MTT assay; format: functional, cell-based; conditions: HepG2, 48 h
[7] = tested on: K562; experiment: Induction of apoptosis in human K562 cells assessed as increase in caspase-3 protein expression at 0.93 uM after 24 hrs by ELISA; format: functional, cell-based
[8] = tested on: K562; experiment: Induction of apoptosis in human K562 cells assessed as increase in caspase-3 protein expression at 1.24 uM after 24 hrs by ELISA; format: functional, cell-based
[9] = tested on: K562; experiment: Induction of apoptosis in human K562 cells assessed as increase in caspase-9 protein expression at 1.24 uM after 24 hrs by ELISA; format: functional, cell-based
[10] = Cell cycle arrest in human K562 cells assessed as accumulation at G2 phase at 0.49 uM after 24 hrs by propidium iodide staining based flow cytometry (reference value: 9.3%); format: functional
[11] = Cell cycle arrest in human K562 cells assessed as accumulation at S phase at 0.49 uM after 24 hrs by propidium iodide staining based flow cytometry (reference value: 21.7%); format: functional
[12] = tested on: K562; experiment: Induction of apoptosis in human K562 cells at 0.49 uM after 24 hrs by propidium iodide staining based flow cytometry (reference value: 0.8%); format: functional
[13] = Cell cycle arrest in human K562 cells assessed as accumulation at G1 phase at 0.49 uM after 24 hrs by propidium iodide staining based flow cytometry (reference value: 68.2%); format: functional
[14] = tested on: K562; experiment: Induction of apoptosis in human K562 cells assessed as increase in caspase-3 protein expression at 0.49 uM after 24 hrs by ELISA; format: functional, cell-based
[15] = tested on: K562; experiment: Induction of apoptosis in human K562 cells assessed as increase in caspase-9 protein expression at 0.49 uM after 24 hrs by ELISA; format: functional, cell-based
[16] = tested on: K562; experiment: Induction of apoptosis in human K562 cells assessed as increase in caspase-3 protein expression at 1.21 uM after 24 hrs by ELISA; format: functional, cell-based
[17] = tested on: K562; experiment: Induction of apoptosis in human K562 cells assessed as increase in caspase-9 protein expression at 1.21 uM after 24 hrs by ELISA; format: functional, cell-based
[18] = tested on: HepG2; experiment: Induction of apoptosis in human HepG2 cells assessed as increase in Bax mRNA expression at antiproliferative IC50 by RT-PCR method; format: functional, cell-based
[19] = tested on: HepG2; experiment: Induction of apoptosis in human HepG2 cells assessed as increase in caspase-9 protein expression at 0.77 uM after 24 hrs by ELISA; format: functional, cell-based
[20] = tested on: HepG2; experiment: Induction of apoptosis in human HepG2 cells assessed as decrease in Bcl2 mRNA expression at antiproliferative IC50 by RT-PCR method; format: functional, cell-based
[21] = tested on: HepG2; experiment: Induction of apoptosis in human HepG2 cells assessed as increase in caspase-3 protein expression at 0.77 uM after 24 hrs by ELISA; format: functional, cell-based
[22] = tested on: HepG2; experiment: Induction of apoptosis in human HepG2 cells assessed as increase in caspase-9 protein expression at 0.65 uM after 24 hrs by ELISA; format: functional, cell-based
[23] = tested on: HepG2; experiment: Induction of apoptosis in human HepG2 cells assessed as increase in caspase-3 protein expression at 0.65 uM after 24 hrs by ELISA; format: functional, cell-based
[24] = Cell cycle arrest in human HepG2 cells assessed as accumulation at S phase at 0.65 uM after 24 hrs by propidium iodide staining based flow cytometry (reference value: 25.2%); format: functional
[25] = Cell cycle arrest in human HepG2 cells assessed as accumulation at G2 phase at 0.65 uM after 24 hrs by propidium iodide staining based flow cytometry (reference value: 7.2%); format: functional
[26] = tested on: HepG2; experiment: Induction of apoptosis in human HepG2 cells at 0.65 uM after 24 hrs by propidium iodide staining based flow cytometry (reference value: 1.2%); format: functional
[27] = Cell cycle arrest in human HepG2 cells assessed as accumulation at G1 phase at 0.65 uM after 24 hrs by propidium iodide staining based flow cytometry (reference value: 66.4%); format: functional

Row | Structure (SMILES) | IC50 at 48 h [2] | IC50 [3] | IC50 [6] | also measured
1 | COc1ccc(/C=C/C(=O)c2cc3cccc(OC)c3oc2=O)cc1OC | 33.1 µM | 0.93 µM | 0.82 µM | Activity [1]: Active; Activity [4]: Active; Activity [5]: Active; Activity [7]: Active
2 | COc1cccc2cc(-c3ccc(C(C)=O)c(C)n3)c(=O)oc12 | 354 µM | 1.24 µM | 9.1 µM | Activity [8]: Active; Activity [9]: Active
3 | COc1ccc(-c2cc(-c3cc4cccc(OC)c4oc3=O)nc(C#N)c2N)cc1OC | 36.1 µM | 1.61 µM | 3.2 µM | –
4 | COc1cc(/C=C(\C#N)C(=O)N/N=C(\C)c2cc3cccc(OC)c3oc2=O)cc(OC)c1OC | 11.1 µM | 0.49 µM | 1.57 µM | Activity [10]: 15.5%; Activity [11]: 30.2%; Activity [12]: 9.7%; Activity [1]: Active; Activity [13]: 44.6%; Activity [5]: Active; Activity [14]: Active; Activity [15]: Active
5 | CCOC(=O)c1ccc(-c2cc3cccc(OC)c3oc2=O)nc1C | 67.7 µM | 8.82 µM | 4.92 µM | –
6 | COc1cccc2c1C(=O)c1c(O)c3c(c(O)c1C2=O)C[C@@](O)(C(=O)CO)C[C@@H]3O[C@H]1C[C@H](N)[C@H](O)[C@H](C)O1 [DOXORUBICIN] | – | 2.96 µM | 4.93 µM | –
7 | COc1ccc(C[C@@H](O)c2cc(OC)c(OC)c(OC)c2)cc1O [COMBRETASTATIN] | – | 3.46 µM | 3.4 µM | –
8 | COc1ccc(-c2cc(-c3cc4cccc(OC)c4oc3=O)nc(C#N)c2N)cc1 | 8.66 µM | 1.21 µM | 1.25 µM | Activity [16]: Active; Activity [17]: Active
9 | COc1ccc(/C=C(\C#N)C(=O)N/N=C(\C)c2cc3cccc(OC)c3oc2=O)cc1OC | 3.3 µM | 8.71 µM | 0.93 µM | –
10 | COc1ccc(/C=C(\C#N)C(=O)N/N=C(\C)c2cc3cccc(OC)c3oc2=O)cc1 | 48.4 µM | 3.96 µM | 0.77 µM | Activity [18]: Active; Activity [19]: Active; Activity [20]: Active; Activity [21]: Active
11 | COc1ccc(/C=C/C(=O)c2cc3cccc(OC)c3oc2=O)cc1 | 293 µM | 1.09 µM | 0.65 µM | Activity [18]: Active; Activity [22]: Active; Activity [23]: Active; Activity [24]: 28.8%; Activity [25]: 19.1%; Activity [20]: Active; Activity [26]: 16.3%; Activity [27]: 35.8%
12 | COc1cc(/C=C/C(=O)c2cc3cccc(OC)c3oc2=O)cc(OC)c1OC | 9.55 µM | 1.36 µM | 2.02 µM | –
